Entries after “also recorded” stand apart in the source; their conditions may differ.
Columns and labels:
[1] = test system: CD62L shedding; assay: Soluble CD62L ELISA, anti-CD3/PHA stimulated PBMC or CD4 T cells; format: cell-based, human; details: for inhibition at 10 µM: Homo sapiens, 10 μM compound, stimulated cells; for inhibition at 10 µM / effect on CD62L shedding / soluble CD62L: ELISA; for effect on CD62L shedding / soluble CD62L: stimulated PBMC or CD4 T cells
In short: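 Healthy-donor PBMC stimulated with okt3 anti-CD3 (~0.2 μg/mL final) plus IL-2 (20 U/mL final) in presence of compound. Soluble CD62L in supernatants measured by ELISA; viability checked by AO/PI staining.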

[2] = test system: PBMC; assay: PBMC viability (AO/PI staining); format: cell-based, human; details: for impact on cell viabilities in HIV-1BAL infection: PBMC post infection with HIV-1BAL; for PBMC viability at 24hr post treatment: 10-500 μM of MMP inhibitors for 24hours
Method: PBMC from de-identified healthy donors were obtained with informed consent from the Department of Transfusion Medicine, National Institutes of Health under Biological reagent Registry RD-14-IX-12 approved by NIH biological safety board. CD8-depleted PBMCs, either stimulated or non-stimulated with 10 μg/mL phytohaemagglutinin (PHA) or anti-CD3 antibody (with or without conjugated beads), were plated at 2×10^6 cells/ml in 48 well plates in RPMI 1640 + 10%FBS (R10) to a final volume of 1 mL in each well. IL-2 was added at a final concentration of 20 U/mL. CD3 antibody okt3 was used at ~0.2 μg/mL final concentration. Compounds were prepared in appropriate solvents according to the manufacturer’s instructions, diluted to working concentrations using RPMI 1640 + 10%FBS (R10), and added to the cell cultures for 6–24 h for CD62L shedding, and 48 h for TNF-α release. Supernatants were collected and assessed using either the CD62L or TNF-α Duo Set ELISA kit according to manufacturer’s instructions (R&D Systems, Inc.). The viability of cells treated with compounds was assessed by acridine orange / propidiom iodide (AO/PI Logosbio catalog F23001) staining using Luna-FL cell counter following the manufacture’s instruction.^2

[3] = test system: HIV-1; assay: Ex vivo HIV-1 release from CD4 T cells of HIV-1 infected individuals; format: cell-based; details: 50 μM; for effect on viral release (virion-associated HIV RNA): CD4 T cells from six HIV-1 infected individuals, day 2 and 4
Method: PBMCs were collected from the study subjects in accordance with a clinical protocol approved by the Institutional Review Board of the National Institute of Allergy and Infectious Diseases, National Institutes of Health under protocol #02-I-0202. CD4^+ T cells were isolated from the PBMCs using a human CD4 T cell separation system (StemCell Technologies, Catalog 19052) and were cultured with medium alone or with plate-bound anti-CD3 and soluble anti-CD28 antibody in the absence or presence of 50 μM of indicated compounds for 48 h. The copy number of cell-free viron-associated HIV RNA in the culture supernatants was quantified using the Cobas Ampliprep/Cobas Taqman HIV-1 Test, Version 2.0 (Roche Diagnostics) with droplet digital PCR (ddPCR, BIO-RAD) on day 2 and 4 of stimulation.

[4] = target: T1, recombinant ADAM10 (Homo sapiens, UniProt O14672); assay: Cleavage of fluorogenic CD62L peptide by recombinant ADAM10; format: biochemical; details: 2 μM compound
T1 construct: purchased R&D systems, Inc
T1 sequence (O14672 214-748): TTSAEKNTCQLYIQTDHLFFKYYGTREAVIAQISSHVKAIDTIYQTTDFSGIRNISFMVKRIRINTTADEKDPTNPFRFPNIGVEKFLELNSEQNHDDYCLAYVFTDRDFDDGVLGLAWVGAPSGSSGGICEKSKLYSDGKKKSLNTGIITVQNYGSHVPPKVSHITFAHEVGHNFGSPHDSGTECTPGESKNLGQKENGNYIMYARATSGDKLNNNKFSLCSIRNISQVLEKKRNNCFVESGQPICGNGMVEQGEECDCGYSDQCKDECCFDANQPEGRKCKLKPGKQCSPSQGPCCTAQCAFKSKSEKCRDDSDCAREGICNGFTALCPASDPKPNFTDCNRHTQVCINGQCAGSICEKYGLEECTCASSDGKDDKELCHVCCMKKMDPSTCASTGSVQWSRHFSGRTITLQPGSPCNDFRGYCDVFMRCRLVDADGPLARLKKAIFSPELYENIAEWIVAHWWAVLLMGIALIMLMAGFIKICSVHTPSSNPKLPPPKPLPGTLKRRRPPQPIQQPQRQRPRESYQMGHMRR
Description: A fluorescence based enzymatic assay was used to measure the cleavage of fluorogenic TNF-α and L-selectin (CD62L) peptides by either recombinant ADAMs or PBMC from healthy donors. The fluorogenic substrate, synthesized by Biomatik^3, was a Dabcyl (4-(4-dimethylaminophenylazo)benzoyl)- and Edans (5-[(2-aminoethyl)amino]naphthalene-1-sulfonic acid)- conjugated 12 amino acid peptide: Dabcyl-[…]-Edans that corresponds to the extracellular membrane proximal region of CD62L. The fluorescence of the Edans group is quenched by the Dabcyl group in the intact substrate and the cleavage of the CD62L substrate peptide results in a fluorescence emission at 490 nm. The cleavage of fluorogenic TNF-α peptide (ES003, R &D systems, Inc) was detected at emission of 405 nm. The cleavage was measured in a kinetic assay every 3 min for 4 h in black 96-well plates using a Synergy_h1 fluorescent plate reader (BioTek) with 340 nm excitation and 490 nm emission wavelengths. For cleavage using recombinant ADAMs, each enzymatic reaction contained 50–200 ng of recombinant ADAM17 or 10 (R&D systems, Inc) mixed with 5–10 μM fluorogenic TNFα peptide ES003 (R&D systems, Inc) or CD62L peptide with or without indicated inhibitors in 100 μL assay buffer of 25 mM Tris at pH 9.0, 2.5 μM ZnCl2, and 0.005% Brij-35 (w/v). For cell-based cleavage of the fluorescent CD62L-peptide substrate, 300,000 PBMC at 2×10^6/ml density were mixed with 10 μM fluorescent CD62L-peptide and various inhibitors in a black 96-well plate in 150 μL culture media (RPMI 1640, 10% FBS, 1% penicillin streptomycin). PBMC were stimulated with anti-CD3 antibody for 2–4 days as described above.
Supplemental Figure 3. Inhibition of ADAM10 enzymatic activity by 14mb. A) chemical structure of 3-Cl-phenylpyrrolidine tartrate diamide analogs 14m and 15. B)Inhibition of recombinant ADAM10 cleavage of a fluorogenic CD62L peptide substrate in the presence of titrating concentrations of 14mb. The concentration-dependent enzymatic activities are fitted with non-linear regression of normalized inhibition response model. C). Inhibition of ADAM10 enzymatic cleavage of fluorogenic CD62L peptide by various […]

CC1(C)SCCN(S(=O)(=O)c2ccc(Oc3ccncc3)cc2)[C@H]1C(=O)NO [prinomastat]
inhibition at 10 µM [1]: > 50%
effect on CD62L shedding / soluble CD62L [1]: suppressed CD62L shedding
impact on cell viabilities in HIV-1BAL infection [2]: without significant impact to cell viabilities
effect on viral release (virion-associated HIV RNA) [3]: inhibited viral release in a portion of the samples
inhibition of ADAM10 cleavage of CD62L substrate peptide [4]: completely suppressed

CNC(=O)[C@H](Cc1ccccc1)NC(=O)[C@H](CC(C)C)[C@H](CSc1cccs1)C(=O)NO [BB-94, Batimastat]
inhibition at 10 µM [1]: > 50%
effect on 3,4-dichloroisocouman enhanced CD62L shedding ([1]; stimulated PBMC): blocked
effect on CD62L shedding / soluble CD62L [1]: suppressed CD62L shedding; also recorded: inhibited
PBMC viability at 24hr post treatment [2]: No significant decrease in the viability
impact on cell viabilities in HIV-1BAL infection [2]: without significant impact to cell viabilities
effect on viral release (virion-associated HIV RNA) [3]: inhibited the viral release from all individuals
reductions in released virion-associated RNA ([3]; day 2 and 4 post stimulation): 2–50 fold
inhibition of ADAM10 cleavage of CD62L substrate peptide [4]: indistinguishable with that of fluorogenic peptide CD62L-only without the enzyme; also recorded: completely suppressed

CNC(=O)[C@@H](NC(=O)[C@H](CCCc1ccccc1)[C@H](C)N(O)C=O)C(C)(C)C [GI254023X]
inhibition at 10 µM [1]: > 50%
effect on CD62L shedding / soluble CD62L [1]: suppressed CD62L shedding
PBMC viability at 24hr post treatment [2]: No significant decrease in the viability
inhibition of ADAM10 cleavage of CD62L substrate peptide [4]: completely suppressed
